Results as given in ChEMBL document CHEMBL1150106, “Carvone and perillaldehyde interfere with the serum-induced formation of filamentous structures in Candida albicans at substantially lower concentrations than those causing significant inhibition of growth” (J Nat Prod, 2002).
The source made the active and inactive calls. The rule behind the calls is not given here.

What was measured:
Assay type in all cases: functional, organism-based
Candida albicans [1] = assay: Anticandidal activity against Candida albicans H317 assessed as inhibition of transformation of organism from cellular yeast to filamentous form at 250 uM preincubated for 2 hrs before addition of fetal bovine serum measured after 22 hrs by phase contrast microscopy
Candida albicans [2] = assay: Growth inhibition of cellular yeast form of Candida albicans H317 at 5 mM after 2 hrs
Candida albicans [3] = assay: Anticandidal activity against Candida albicans H317 assessed as inhibition of transformation of organism from cellular yeast to filamentous form at 125 uM preincubated for 2 hrs before addition of fetal bovine serum measured after 22 hrs by phase contrast microscopy

Compound | Activity (Candida albicans [1]) | Activity (Candida albicans [2]) | Activity (Candida albicans [3])
C=C(C)[C@H]1CC=C(C)C(=O)C1 | Active | Active | 
C=C(C)[C@@H]1CC=C(C=O)CC1 |  | Active | Active
